Measured values as given in patent US12024506B2, “Compounds” (Oxford University Innovation Limited, priority 2018, dated 2024).

Columns and labels:
[1] = target: T1, GST-human KRas166 (G12V) GPPNHP (Homo sapiens, UniProt P01116, G12V); experiment: KRas small-molecule screening by SPR (Biacore T200); format: binding; details: compound 100 uM, 5% DMSO buffer; immobilised GST-KRas166 (G12V) GPPNHP
T1 construct: made in house; host or cells: E. coli C41(DE3)
Method in brief: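 Biacore T200 screen: compounds at 100 uM final in 5% DMSO buffer (100 mM NaCl, 5 mM MgCl2) over GPPNHP-bound GST-KRas166 G12V captured by anti-GST antibody (10,000–15,000 RU) versus GST-only channel. Expected 1:1 Rmax 63 RU; DMSO solvent correction applied.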

[2] = system: H358 cells (ATCC CRL-5807); experiment: Cell viability assay 1 (CellTiter-Glo), H358 cells; format: cell-based; details: Homo sapiens, NCI-H358, 48 h, first value of the cell, read-out: Cell Viability H358 (concentration that decreases cell viability by 50%)
Method in brief: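 H358 cells were grown in RPMI-1640 with 10% FCS and 2 mM L-glutamine, plated at 5000 cells/well and allowed to adhere overnight. Compound was added in 0.5% DMSO final for 48 h at 37° C. Viability was read by CellTiter-Glo luminescence, with the 50% viability-reducing concentration derived from dose-response curves.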

HT1080 cells = experiment: Cell viability assay 2 (CellTiterGlo), HT1080 cells; format: cell-based; details: Homo sapiens, HT-1080, cell line printed as HCT1080, 48 or 72 h
Procedure: Cancer cell lines were in seeded in ViewPlates-96 microplates (PerkinElmer). HT1080 cells at 7500 cells per well and cultured in DMEM, high glucose, GlutaMAX media containing 10% FBS at 37° C. in 5% CO2 atmosphere. Cells were cultured overnight and the compounds (dissolved in DMSO and diluted to 0.2% DMSO) were added to the cells at concentrations ranging from 0 to 20 μM. The cells were incubated under standard culture conditions for either 24, 48 or 72 h. Cell viability was as quantitated using the CellTiterGlo Luminescent Cell Viability Assay (Promega) according to the manufacturer's instructions to measure ATP generated by metabolically active cells. Luminescent signals were measured using an Envision 2103 Multilabel Microplate Reader (PerkinElmer). The luminescence signals obtained from the compound-treated cells were normalized against the signal for DMSO-only treated cells.

SMILES | SPR Response Units [1] | IC50 [2] | IC50 (HT1080 cells)
COc1nc(-c2cccc3c2OCCO3)ccc1Nc1ccc(CN(C)C)cc1 [compound 56, [6-(2,3-Dihydro-benzo[1,4]dioxin-5-yl)-2-methoxy-pyridin-3-yl]-(4-dimethylaminomethyl-phenyl)-amine] | 116 Response Units | 12 µM | 10 µM
COc1cc(-c2cccc3c2OCCO3)ccc1Nc1cccc(CN(C)C)c1.O=CO [compound 72, [4-(2,3-Dihydro-benzo[1,4]dioxin-5-yl)-2-methoxy-phenyl]-(3-dimethylaminomethyl-phenyl)-amine formate salt] | 56 Response Units | 15.3 µM | 
